One test concerns LAN5 transcriptome. Kind of test: RNA-seq transcriptome-wide selectivity in LAN5 cells. The format is cell-based, human. On the procedure:
RNA-Seq. LAN5 cells in 12-well plate (~60% confluency) were treated with 2 (1.5 μM), 0.1% (v/v) DMSO (vehicle), 4R-to-3R tau ASO (0.5 μM), or scrambled ASO (0.5 μM) for 48 h. Total RNA was extracted using an RNeasy Mini Kit (Qiagen) per the manufacturer's protocol. Next, rRNA was depleted using NEBNext rRNA depletion modules (E6310L, New England Biosciences) and prepared with NEBNext Ultra II Dir RNA Lib Prep Kit (E7760S, New England Biosciences) according to the manufacturer's protocol. The prepared libraries were processed with NextSeq 500/550 High Output Kit v2.5 (Illumina, 20024907) per the manufacturer's protocol and then sequenced on a NextSeq 500. After sequencing, the BCL files were converted to FASTQ files using basemount/0.12.8.1516 and bcl2fastq/2.17.1.14.^33 The sequencing depth was over 82 million for each sample.
FastQC^34 and RSeQC^35 were used to determine the quality of reads and any overrepresentation of sequences. HISAT2^36 was used to map the reads to the reference human genome (hg19), and the output SAM files were converted to BAM files and sorted by index. Kallisto^37 and NCBI reference sequences (RefSeq)^38 were used for gene quantification to calculate transcripts per million (TPM). Differentially expressed genes were detected with Sleuth^39 and determined by a multiple test corrected p-value<0.05. Splicing event PSI values were quantitated using MISO.^40

Test [1] deals with dually labeled DDPAC MAPT SRE RNA / U1 snRNA mimic. Kind of test: U1 snRNA mimic FRET-based quenching assay. It counts as biochemical. As for the experimental part:
U1 snRNA Mimic Quenching Assay. A 200 nM aliquot of dually labeled model of the DDPAC RNA (5′-FAM-[…]-BHQ-1-3′ (SEQ ID NO: 5); where FAM is 5 (6)-Carboxyfluorescein and BHQ-1 is black hole quencher) was folded in 1× Assay Buffer as described in Fluorescent Binding Affinity Measurements. Compound of interest at the indicated concentration was added, and the samples were incubated at room temperature in the dark for 15 min. A U1 snRNA mimic with sequence 5′-[…]-3′ (SEQ ID NO: 6) was then added to the samples to a final concentration of 20 μM. The fluorescence intensity of FAM was measured as a function of time for 1 h using a […] plate reader, with excitation and emission wavelengths of 485 and 525 nm, respectively.

Test [2] has as its system DDPAC MAPT mini-gene (exon 10 splicing). Description: 4R/3R MAPT mRNA by RT-qPCR, HeLa cells transfected with DDPAC mini-gene. It counts as cell-based. On the procedure:
RNA Isolation and Real-Time Quantitative PCR (RT-qPCR). HeLa cells were treated as described in the Luciferase Reporter assay to Study Exon 10 Alternative Splicing. LAN5 cells were seeded in 12-well plates at 0.2×10^6 cells per well, treated with compound or ASO, and incubated for 48 h. Compound stocks prepared in DMSO and ASO stocks prepared in water were diluted in growth medium and added to cells. Total RNA was extracted from cells and analyzed via RT-qPCR to determine levels of 3R and 4R tau mRNA. In brief, the cells were washed with 1×DPBS and then lysed in the well using 300 μL of Lysis Buffer provided in a Quick-RNA MiniPrep kit (Zymo Research), which was used to extract total RNA per the manufacturer's protocol including the on-column DNase I digestion. The concentration of total RNA was measured by NanoDrop 2000 (Thermo Fisher Scientific). Only samples with OD260/OD280>1.8 were carried forward for analysis. Reverse transcription (RT) was carried out on 200 ng of total RNA using a qScript cDNA synthesis kit (QuantaBio) in a total volume of 10 μL according to the manufacturer's protocol. […] 4R/3R ratio were analyzed using ΔΔCt method using Equation 2: […]

The next test deals with WT MAPT SRE RNA. Description: Fluorescent binding affinity, WT SRE RNA. As for the experimental part: Fluorescent Binding Affinity Measurements. Binding assays were completed as previously described.^30 Briefly, the RNA of interest was folded in 1× Assay Buffer-1 (AB1: 8 mM Na2HPO4, pH 7.0, 185 mM NaCl, and 1 mM EDTA) by heating at 95° C. for 30 s followed by slowly cooling to room temperature. Bovine serum albumin (BSA) was then added to a final concentration of 40 μg/mL to afford 1× Assay Buffer-2 (AB2: 8 mM Na2HPO4, pH 7.0, 185 mM NaCl, 1 mM EDTA, and 40 μg/mL BSA). The RNA solution was serial diluted with 1×AB2. Then, compound of interest was added to the RNA solutions to a final concentration of 0.5 μM. […] Fluorescence intensity was measured using a Tecan Plate Reader (Gain: 100, Integration time: 40 μs). […] The change in fluorescence of the small molecule was calculated by its comparison to samples lacking RNA. Binding affinity was calculated using Equation 1, as previously described:^30
where I and I0 are the measured fluorescence intensity of the compound with or without RNA, respectively, Δε is the difference between the fluorescence intensity with the infinite concentration of RNA and the fluorescence intensity without RNA, [SM]0 and [RNA]0 are the concentrations of the small molecule (SM) and RNA, respectively, and Kd is the dissociation constant.

The IC50 is the concentration at which inhibition is half-maximal. Broadly, the Kd is the constant that tells how readily two partners part at equilibrium. Low values mean a tighter complex, high ones a looser complex. Take `COc1cc(N)ncc1CCCN(C)CCCn1cnc2c3ccccc3n(C)c2c1=O` [Compound 2, 3-(3-((3-(6-amino-4-methoxypyridin-3-yl)propyl)(methyl)amino)propyl)-5-methyl-3,5-dihydro-4H-pyrimido[5,4-b]indol-4-one]: the “expression of MAPT gene” value in the test with LAN5 transcriptome (2 at 1.5 μM or ASO 0.5 μM) is “Neither 2 nor the ASO altered the expression of MAPT gene”. Besides, in the test on LAN5 transcriptome (2 at 1.5 μM or tau ASO 0.5 μM), the “alternative splicing of MAPT exons (exon 10)” value is “only one significantly reduced”. Besides, the “genes unchanged, percent” value in the test with LAN5 transcriptome (2 at 1.5 μM, 48 h) was determined as 99.73%. Further, in test [1] (2 vs 1, multiple biochemical assays), the “more potent than 1 in multiple biochemical assays” value is recorded as “at least 6 fold”. The “rate of increase of FAM signal (unfolding by U1 snRNA mimic)” value in test [1] (compound 10 μM, vehicle 0.49 min-1) came out at 0.37 min⁻¹. The “lower IC50 compared with 1” value in test [1] (end-point FRET assay (FIG. 15C), 2 vs 1) was “around 5 fold”. In test [1] (end-point measurement (5 min), read-out: IC50, reduction in FAM fluorescence (U1 snRNA mimic binding)), the 50% inhibitory concentration (IC50) was 900 ± 200 nM. For the same compound, the “PSI10 (PSI of MAPT exon 10) vs vehicle” value in test [2] (HeLa, DDPAC mini-gene) is on record as “downregulated”. For the same compound, the inhibition at 1.5 µM in test [2] (Homo sapiens, 2 at 1.5 μM, 48 h, HeLa DDPAC mini-gene, read-out: reduction of 4R/3R ratio (mRNA)) is 42 ± 3%. Moreover, the “higher affinity for the MAPT SRE than 1” value in the test on WT MAPT SRE RNA (2 vs 1) is ~ 6 fold. At WT MAPT SRE RNA (WT RNA, inherent fluorescence, n=3), this compound registered a Kd of 550 ± 110 nM.

(Values after patent publication US20260308158A1, “TARGETING RNAS ASSOCIATED WITH TAUOPATHIES WITH SMALL MOLECULES” (University of Florida Research Foundation, Incorporated, priority 2023, published 2026).)
